Assay results taken from EPA's ToxValDB 9.5.
Several values for one entry are separate records, joined by “and”; a condition that tells them apart may be missing. Equal entries are not always repeated.

Key:
Rattus norvegicus [1] = conditions: subchronic; oral; gavage; M/F; liver toxicity
Rattus norvegicus [2] = conditions: oral; for NOAEL: chronic, None Observed
Canidae = conditions: chronic, oral, diet, Dog Other
Mus musculus [3] = conditions: short-term, duration: 28 days, oral, gavage; for LEL / NEL: C57BL/6
Mus musculus [4] = tested on: Mus musculus
Rattus norvegicus [5] = tested on: Rattus norvegicus
Oryctolagus sp. = conditions: dermal; for LD50: acute, occlusive
Rattus norvegicus [6] = conditions: oral
Rattus norvegicus [7] = conditions: short-term; duration: 28 days; oral; gavage; M/F; Clinical Observation: Tremor
[8] = duration: 2 years, M/F, cholinesterase inhibition
[9] = duration: 2 years, M/F, elevated alkaline phosphatase + Increase in thyroid/body weight ratio + slight increase in liver weights
[10] = reproduction developmental, duration: 4 weeks, Inhalation, F, CD
[11] = reproduction developmental, duration: 4 weeks, Inhalation, M, CD
[12] = reproduction developmental, duration: 10 days, oral, gavage, Crl:CD(SD)
[13] = Hershberger, duration: 7 days, gavage, Sprague-Dawley, active + Antiandrogenic + anti-androgenic + no AST effects in pairwise comparison but increasing trend for LABC and DL prostate / …
[14] = duration: 1 years, M/F, tremors
[15] = F, Liver: Acyl-CoA Oxidase Activity, Liver + Multi-organ: IgM Serum Titer + Spleen: Spleen Weight, Absolute + Spleen: Spleen Weight, Relative
[16] = F, Liver: Liver Weight, Absolute + Liver: Liver Weight, Relative
[17] = M, Liver: Acyl-CoA Oxidase Activity, Liver + Liver: Liver Weight, Absolute + Liver: Liver Weight, Relative
[18] = M, Spleen: CD4-/CD8- Cell Count + Spleen: CD4+/CD8+ Cell Count + Spleen: CD8+ Cell Count
[19] = duration: 1 years, M/F, liver cell enlargement
[20] = duration: 1 years, M/F, thyroid toxicity
[21] = M/F, reduced body weight gain, skeletal myopathy, slight anemia, bone marrow hyperplasia, increased serum sgot, sgpt, cpk

CCNc1nc(NC(C)C)nc(SC)n1 [Ametryn]
LEL (Rattus norvegicus [1]): 100 mg/kg-day
NOEL (Rattus norvegicus [1]): 8.6 mg/kg-day and 10 mg/kg-day
NOEL (Rattus norvegicus [2]; subchronic, duration: 13 weeks, gavage, Liver: Effects): 10 mg/kg-day

CCOP(=O)(NC(C)C)Oc1ccc(SC)c(C)c1 (centres undefined) [Fenamiphos]
LEL (Canidae; [8]): 0.05 mg/kg-day
NOEL (Canidae; [8]): 0.025 mg/kg-day

O=C(O)CC(F)(F)C(F)(F)C(F)(F)C(F)(F)C(F)(F)C(F)(F)F [2-(Perfluorohexyl)ethanoic acid]
NOAEL (Mus musculus [3]; M, CD1, Liver: Alanine Aminotransferase (ALT) + Liver: Albumin (A) + Liver: Alkaline Phosphatase (ALP) + Liver: Aspartate Aminotransferase (AST) + …): 5 mg/kg-day
LOAEL (Mus musculus [3]; M, CD1, Liver: Total Cholesterol (CHOL)): 5 mg/kg-day

[Be] [Beryllium]
NOAEL (Rattus norvegicus [2]; drinking water): 0.54 mg/kg-day

CCOP(=S)(OCC)Oc1cc(Cl)c(SC)cc1Cl [Chlorthiophos]
NOAEL (Rattus norvegicus [2]; duration: 2 years, diet): 0.08 mg/kg-day

Cc1[nH]c(=O)n(C(C)(C)C)c(=O)c1Cl [Terbacil]
LEL (Canidae; [9]): 6.25 mg/kg-day
NOEL (Canidae; [9]): 1.25 mg/kg-day

C1CN(SSN2CCOCC2)CCO1 [4,4'-Dithiodimorpholine]
LC50 (Mus musculus [4]; acute, inhalation): 1620 mg/m3
LD50 (Rattus norvegicus [5]; acute, oral, gavage, Sprague-Dawley): 5600 mg/kg
LOAEL (Rattus norvegicus [5]; [10]): 29 mg/m3
NOAEL (Rattus norvegicus [5]; [10]): 9.9 mg/m3
LOAEL (Rattus norvegicus [5]; [11]): 9.9 mg/m3
NOAEL (Rattus norvegicus [5]; [11]): 1.1 mg/m3
LOAEL (Rattus norvegicus [5]; [12]): 500 mg/kg-day
NOAEL (Rattus norvegicus [5]; [12]): 100 mg/kg-day
LD50 (Oryctolagus sp.; New Zealand): > 5010 mg/kg

N#Cc1cccc(C#N)c1 [1,3-Benzenedicarbonitrile]
NOAEL (Mus musculus [4]; chronic, duration: 91 days, oral, diet, CD1): 20 mg/kg-day
LC50 (Rattus norvegicus [5]; acute, Inhalation, Sprague-Dawley): > 8970 mg/m3
LD50 (Rattus norvegicus [5]; acute, oral, gavage): > 5010 mg/kg
NOAEL (Rattus norvegicus [5]; chronic, duration: 99 days, oral, diet, F, Charles River Crl:CD BR VAF/PLUS): 5 mg/kg-day
NOAEL (Rattus norvegicus [5]; chronic, duration: 99 days, oral, diet, M, Charles River Crl:CD BR VAF/PLUS): 1 mg/kg-day
NOAEL (Rattus norvegicus [5]; reproduction developmental, duration: 122 days, oral, diet, F): 25 mg/kg-day
NOAEL (Rattus norvegicus [5]; short-term, duration: 14 days, Inhalation, Sprague-Dawley): 190 mg/m3
LD50 (Oryctolagus sp.): > 2000 mg/kg
NOAEL (Oryctolagus sp.; short-term, duration: 3 weeks, non-occlusive, New Zealand): 500 mg/kg-day

Cc1c(COC(=O)[C@@H]2[C@H](/C=C(\Cl)C(F)(F)F)C2(C)C)cccc1-c1ccccc1 [Bifenthrin]
LOEL (Rattus norvegicus [6]; [13]): 13.5 mg/kg-day
NOEL (Rattus norvegicus [6]; [13]): 10 mg/kg-day
NOEL (Rattus norvegicus [6]; Hershberger, duration: 10 days, gavage, Sprague-Dawley, inactive + Negative + Negative + neither + negative): 10 mg/kg-day
LEL (Rattus norvegicus [6]; uterotrophic, duration: 3 days, Active): 13.2 mg/kg-day
LEL (Canidae; [14]): 3 mg/kg-day
NOEL (Canidae; [14]): 1.5 mg/kg-day
NOEL (Rattus norvegicus [7]): 50 ppm

O=C(O)C(F)(OC(F)(F)C(F)(F)C(F)(F)F)C(F)(F)F (centres undefined) [Perfluoro-2-methyl-3-oxahexanoic acid]
LEL (Mus musculus [3]; [15]): 100 mg/kg-day
NEL (Mus musculus [3]; [15]): 10 mg/kg-day
LEL (Mus musculus [3]; [16]): 10 mg/kg-day
NEL (Mus musculus [3]; [16]): 1 mg/kg-day
NEL (Mus musculus [3]; F, Spleen: B Cell Count + Spleen: CD4-/CD8- Cell Count + Spleen: CD4+ Cell Count + Spleen: CD4+/CD8+ Cell Count + Spleen: CD8+ Cell Count + …): 100 mg/kg-day
LEL (Mus musculus [3]; [17]): 10 mg/kg-day
NEL (Mus musculus [3]; [17]): 1 mg/kg-day
NEL (Mus musculus [3]; M, Multi-organ: IgM Serum Titer + Spleen: B Cell Count + Spleen: CD4+ Cell Count + Spleen: Spleen Weight, Absolute + Spleen: Spleen Weight, …): 100 mg/kg-day
LEL (Mus musculus [3]; [18]): 100 mg/kg-day
NEL (Mus musculus [3]; [18]): 10 mg/kg-day

C[Si](Cn1cncn1)(c1ccc(F)cc1)c1ccc(F)cc1 [Flusilazole]
LEL (Canidae; [19]): 0.7 mg/kg-day
NOEL (Canidae; [19]): 0.2 mg/kg-day

CC(=O)O.CCCCCCCCCCCCN=C(N)N [Dodecylguanidine acetate]
LEL (Canidae; [20]): 5 mg/kg-day
NOEL (Canidae; [20]): 1.25 mg/kg-day

CC(C)C1(C)N=C(c2nc3ccccc3cc2C(=O)O)NC1=O (centres undefined) [Imazaquin]
LEL (Canidae; [21]): 125 mg/kg-day
NOEL (Canidae; [21]): 25 mg/kg-day

Nc1c(Cl)c(Cl)nc(C(=O)O)c1Cl [Picloram]
NOEL (Canidae; duration: 6 months, M/F, increased liver weight): 7 mg/kg-day
LEL (Canidae; duration: 6 months, M, increased liver weight): 35 mg/kg-day
